Source: patent US20220153739A1, “OPIOID RECEPTOR MODULATOR AND USE THEREOF” (Arriba BioPharma, Inc., priority 2020, published 2022)

Tests used:
male CD-1 mice [1] = assay: Stress induced fecal output; type: in vivo; settings: for 0 h (Stools), mean / 0-1 h (Stools), mean / 1-2 h (Stools), mean / 2-4 h (Stools), mean: 50 mg/kg PO, stress induced
From the text: The animals used in the studies are male CD-1 mice, average weight about 25 to 35 g, with an average of 5 mice per dose group. The mice were generally housed in colony housing where they are housed 4 per cage in polycarbonate 20 cages with access to food and water ad lib. On the day of the experiment they are transported to the procedure room where they were individually housed in metabolism cage (CAT003) after intragastric administration of Compound D at 50mpk, a reference compound of Formula II (“ORP-101”), and the vehicle alone. Compound D (“ALB-215896”) and the reference compound were each weighed and dissolved in 2.58 ml of de-ion water, mixed by vortex, to prepare the compound D and reference compound solutions at 5 mg/mL.
During the test, the animals were fasted with free access to water. The wire mesh bottomed tall cage creates a novel environment which induces stress in mice. Stool collection and the number of pellets excreted were determined 0, 1, 2, 4 hours after administration. […] Details data of this study is provided below in Table 1.

[2] = Metabolic stability in SD rat liver microsomes; type: in vitro ADME
Experimental: (§1) The metabolic stability of Compound D in SD rat and human liver microsomes were measured One (1) μM of Compound D was incubated with SD rat or human liver microsomes with NADPH in a water bath or tecan at 37° C. for up to 60 min. All samples were monitored using LC-MS/MS.

male CD-1 mice [3] = assay: Post-inflammatory altered GI transit time (mustard oil), fecal output; type: in vivo; settings: for 0 h (Stools), mean / 1 h (Stools), mean / 2 h (Stools), mean / 4 h (Stools), mean: 50 mg/kg PO, post-inflammatory
Experimental: This test was designed to measure the effect of test substance on gastrointestinal hypersensitivity that occurs following inflammation. Post-inflammatory altered GI transit was induced in male CD-1 mice by injecting freshly opened oil of mustard (95% pure allyl isothiocyanate, 0.5% in ethanol). The effect of stress on GI is motility is evaluated 4 weeks later, when although there is no longer inflammation, the GI tract remains in a hypersensitive state. Effect of test substance was measured after oral administration (intragastric gavage) and subjecting the animals to environmental stress by housing them in metabolism cage. During the test, the animals were allowed access to water ad lib. The wire mesh bottomed tall cage creates a novel environment, which induces stress in mice. The number of pellets excreted was determined at 1 h, 2 h and 4 h after administration. Compound D (ALB-215896) and ORP-101 were each weighed and dissolved in 2.58 ml of de-ion water, mixed by vortex, to prepare the compound D and reference compound solutions at 5 mg/mL.

Caco-2 cells = assay: Bidirectional permeability in Caco-2 cells; type: in vitro ADME
Experimental: (§2) The objective of this study was to determine the bidirectional permeability and efflux ratio of compound D in the Caco-2 cells. Caco-2 cells (purchased from ATCC) at passage number 49 were seeded on 96-well transport inserts and cultured for 22 days before being used for the transport experiment. Compound D was dosed bi-directionally at 2 μM. Samples were taken at 0 and 120 minutes after incubation and analyzed by LC-MS/MS. […] Therefore, both the efflux ratios could not be calculated.

[4] = Bidirectional permeability in Caco-2 cells; type: in vitro ADME; settings: human, 120 minutes; for Papp B→A at 120 min, 2 μM: Caco-2, Caco-2, B to A direction, read-out: mean apparent permeability coefficient (Papp), B to A
Experimental: as §2

[5] = Metabolic stability in human liver microsomes; type: in vitro ADME
Experimental: as §1

[6] = 1 μM, NADPH, 37° C., up to 60 min, read-out: half-life (T1/2)
[7] = read-out: intrinsic clearance (CLint(liver))

Structure (SMILES) | 0 h (Stools), mean (male CD-1 mice [1]) | 0-1 h (Stools), mean (male CD-1 mice [1]) | 1-2 h (Stools), mean (male CD-1 mice [1]) | 2-4 h (Stools), mean (male CD-1 mice [1]) | 0 h (Stools), mean (male CD-1 mice [3]) | 1 h (Stools), mean (male CD-1 mice [3]; 1 h) | 2 h (Stools), mean (male CD-1 mice [3]) | 4 h (Stools), mean (male CD-1 mice [3]) | Papp B→A at 120 min, 2 μM [4] | other results
COc1ccc2c3c1O[C@@H]1[C@@]4(OCCOc5ccc6c7c5OC5C8(OC)CC[C@@]9(CC8[C@](C)(O)C(C)(C)C)[C@@H](C6)N(CC6CC6)CCC759)CC[C@@]5(C[C@@H]4[C@](C)(O)C(C)(C)C)[C@@H](C2)N(CC2CC2)CC[C@]315 (stereo in doubt) [Compound D, 2-((4R,4aS,6R,7R,7aR,12bS)-9-(2-(((4R,4aS,6R,7R,7aS,12bS)-9-(Methyloxy)-3-(cyclopropylmethyl)-6-(2-hydroxy-3,3-dimethylbutan-2-yl)-1,2,3,4,5,6 hexahydro-4a,7-ethano-4,12-methanobenzofuro[3,2-e]isoquinolin-7(7aH)yl)oxy)ethoxy)-3-(cyclopropylmethyl)-7-methoxy-1,2,3,4,5,6,7,7a-octahydro-4a,7ethano-4,12-methanobenzofuro[3,2-e]isoquinolin-6-yl)-3,3-dimethylbutan-2-ol] | 0 Stools | 2.4 Stools | 1.4 Stools | 2 Stools | 0.00 Stools | 1.49 Stools | 1.59 Stools | 2.77 Stools | < 0.4 ×10⁻⁶ cm/s | fecal output versus vehicle and reference compound, in words (male CD-1 mice [1]; oral 50mpk, 1 h, 2 h and 4 h time points): significantly reduced the fecal output; metabolic stability in words [2]: moderately metabolized; half-life at 1 μM [2, 6]: 1.46 h; CLint scaled at 1 μM [2, 7]: 28.5 mL/min/kg; gastrointestinal motility measured by fecal output, in words (male CD-1 mice [3]; 50mpk, 1 h, 2 h, and 4 h time points, post-inflammatory model): significantly decreased gastrointestinal motility; mean apparent permeability coefficient (Papp), B to A (Caco-2 cells; Caco-2, B to A direction, 120 minutes): < 0.5 ×10⁻⁶ cm/s; substrate of transporters (Caco-2 cells; Caco-2, from B to A Papp): poor and no substrate of transporters; permeability classification (Caco-2 cells; across the Caco-2 cell monolayer): low permeability; Papp A→B at 120 min, 2 μM ([4]; Caco-2, apical to basolateral, 2 μM, read-out: mean apparent permeability coefficient (Papp), A to B): < 0.48 ×10⁻⁶ cm/s; metabolic stability in words [5]: stably metabolized; half-life at 1 μM [5, 6]: 1.37 h; CLint scaled at 1 μM [5, 7]: 15.2 mL/min/kg
CO[C@]12CC[C@@]3(C[C@@H]1[C@](C)(O)C(C)(C)C)[C@H]1Cc4ccc(OCCOc5ccc6c7c5O[C@H]5C78CCN(CC7CC7)[C@H](C6)[C@]86CC[C@]5(OC)[C@@H]([C@](C)(O)C(C)(C)C)C6)c5c4[C@@]3(CCN1CC1CC1)[C@@H]2O5 [ORP-101, reference compound] | 0 Stools | 3.8 Stools | 3 Stools | 2.8 Stools | 0 Stools | 1.75 Stools | 2.00 Stools | 3.75 Stools | < 0.13 ×10⁻⁶ cm/s | Papp A→B at 120 min ([4]; Caco-2, apical to basolateral, read-out: mean apparent permeability coefficient (Papp), A to B): < 0.14 ×10⁻⁶ cm/s
